Results taken from patent publication US5852016A, “Quinoxaline derivatives useful in therapy” (Pfizer Inc., priority 1994, dated 1998).

target: T1, glycine site of the NMDA receptor (Rattus norvegicus, UniProt P35439); experiment: Binding affinity for the glycine site of the NMDA receptor (test (a)); details: displacement of selective glycine site radioligand ([3H]-L-689,560) from rat brain membranes
T1 construct: displace a selective glycine site radioligand from rat brain membranes; from tissue; host or cells: rat brain membranes
Protocol: (a) Binding affinity for the glycine site of the NMDA receptor
This may be measured by testing a compound's ability to displace a selective glycine site radioligand from rat brain membranes as described in Brit J Pharm (1991), 104, 74. In a variation of this method, thoroughly washed membrane protein is incubated with [^3 H]-L-689,560 for 90 minutes using tris-acetate buffer (pH 7.4). Displacement of the radioligand, using a range of test compound concentrations, is used to derive IC50 (50% inhibitory concentration) values.

IC50, < 50 nM:
CCS(=O)(=O)Nc1c(Cl)c(Cl)cc2[nH]c(=O)c(=O)[nH]c12 [Example 1, N-(1,4-Dihydro-6,7-dichloro-2,3-dioxoguinoxalin-5-yl)ethanesulphonamide]
Cn1c(CN(c2c(Cl)c(Cl)cc3[nH]c(=O)c(=O)[nH]c23)S(C)(=O)=O)nc2ccccc21 [Example 56]
CS(=O)(=O)N(CCCO)c1c(Cl)c(Cl)cc2[nH]c(=O)c(=O)[nH]c12 [Example 29]
CCc1c(Cl)cc2[nH]c(=O)c(=O)[nH]c2c1N(CCO)S(C)(=O)=O [Example 40]
CN(c1c(Cl)c(Cl)cc2[nH]c(=O)c(=O)[nH]c12)S(C)(=O)=O [Example 8]
CS(=O)(=O)N(CC(=O)O)c1c(Cl)c(Cl)cc2[nH]c(=O)c(=O)[nH]c12 (racemic) [Example 70, (RS)-N-(Carboxymethyl)-N-(1,4-dihydro-6,7-dichloro-2,3-dioxoquinoxaline-5-yl)methanesulphonamide]
CS(=O)(=O)N(CCO)c1c(Cl)c(Cl)cc2[nH]c(=O)c(=O)[nH]c12 (racemic) [Example 17, (RS)-N-(f1,4-Dihydro-6,7-dichloro-2,3-dioxoquinoxaline-5-yl)-N-(2-hydroxyethyl)methanesulphonamide]
